# Experimental data published in ChEMBL document CHEMBL1821612, “Discovery of novel antitubercular 3a,4-dihydro-3H-indeno[1,2-c]pyrazole-2-carboxamide/carbothioamide analogues” (Bioorg Med Chem Lett, 2011).
# System: Vero
# Test: Cytotoxicity against african green monkey Vero cells up to 62.5 ug/mL after 72 hrs by MTT assay
# Type: cell-based
# Conditions: chlorocebus sabaeus
row,Compound,Activity
1,COc1cc2c(cc1OC)C1=NN(C(N)=S)C(c3ccc(F)cc3)C1C2 (stereo unspecified),Non-toxic

# System: Mycobacterium tuberculosis
# Test: Antimycobacterial activity against Mycobacterium tuberculosis H37Rv after 2 weeks by BACTEC 460 radiometric method
# Type: functional
# Conditions: 336 h
row,Compound,MIC [µM]
1,COc1cc2c(cc1OC)C1=NN(C(=O)Nc3c(C)cccc3C)C(c3ccncc3)C1C2 (stereo unspecified),> 10
2,COc1ccc(C2C3Cc4cc(OC)c(OC)cc4C3=NN2C(N)=S)cc1OC (stereo unspecified),12.5
3,COc1cc2c(cc1OC)C1=NN(C(=O)Nc3c(C)cccc3C)C(c3ccccc3)C1C2 (stereo unspecified),12.5
4,NNC(=O)c1ccncc1 [ISONIAZID],0.78
5,COc1ccc(C2C3Cc4cc(OC)c(OC)cc4C3=NN2C(=O)Nc2c(C)cccc2C)cc1OC (stereo unspecified),12.5
6,COc1cc2c(cc1OC)C1=NN(C(N)=S)C(c3ccncc3)C1C2 (stereo unspecified),6.25
7,COc1cc2c(cc1OC)C1=NN(C(=O)Nc3ccc(C)cc3C)C(c3ccccc3)C1C2 (stereo unspecified),> 12.5
8,COc1cc2c(cc1OC)C1=NN(C(=O)Nc3ccc(C)cc3C)C(c3ccncc3)C1C2 (stereo unspecified),10
9,COc1cc2c(cc1OC)C1=NN(C(=O)Nc3ccc(C)cc3C)C(c3ccc(F)cc3)C1C2 (stereo unspecified),6.25
10,CO[C@H]1/C=C/O[C@@]2(C)Oc3c(C)c(O)c4c(O)c(c(/C=N/N5CCN(C)CC5)c(O)c4c3C2=O)NC(=O)/C(C)=C\C=C\[C@H](C)[C@H](O)[C@@H](C)[C@@H](O)[C@@H](C)[C@H](OC(C)=O)[C@@H]1C [RIFAMPIN],0.006
11,COc1ccc(C2C3Cc4cc(OC)c(OC)cc4C3=NN2C(=O)Nc2ccc(C)cc2C)cc1OC (stereo unspecified),12.5
12,COc1ccc(C2C3Cc4cc(OC)c(OC)cc4C3=NN2C(N)=S)cc1 (stereo unspecified),12.5
13,COc1cc2c(cc1OC)C1=NN(C(=O)Nc3c(C)cccc3C)C(c3ccc(F)cc3)C1C2 (stereo unspecified),6.25
14,COc1cc2c(cc1OC)C1=NN(C(N)=S)C(c3ccccc3Cl)C1C2 (stereo unspecified),6.25
15,COc1cc2c(cc1OC)C1=NN(C(=O)Nc3c(C)cccc3C)C(c3ccccc3Cl)C1C2 (stereo unspecified),6.25
16,COc1cc2c(cc1OC)C1=NN(C(N)=S)C(c3ccccc3)C1C2 (stereo unspecified),12.5
17,COc1ccc(C2C3Cc4cc(OC)c(OC)cc4C3=NN2C(=O)Nc2ccc(C)cc2C)cc1 (stereo unspecified),> 12.5
18,COc1cc2c(cc1OC)C1=NN(C(N)=S)C(c3ccc(F)cc3)C1C2 (stereo unspecified),3.12
19,COc1cc2c(cc1OC)C1=NN(C(=O)Nc3ccc(C)cc3C)C(c3ccccc3Cl)C1C2 (stereo unspecified),6.25
20,COc1ccc(C2C3Cc4cc(OC)c(OC)cc4C3=NN2C(=O)Nc2c(C)cccc2C)cc1 (stereo unspecified),> 12.5
